In ChEMBL document CHEMBL1208782, “Synthesis and pharmacological validation of a novel series of non-steroidal FXR agonists” (Bioorg Med Chem Lett, 2010):

Experiments:
[1] = target: T1, Bile acid receptor (Homo sapiens) (UniProt Q96RI1); test: Agonist activity at human GST-fused FXR LBD assessed as cofactor peptide interaction with receptor ligand binding domain by FRET assay relative to GW-4064
T1 sequence (whole entry): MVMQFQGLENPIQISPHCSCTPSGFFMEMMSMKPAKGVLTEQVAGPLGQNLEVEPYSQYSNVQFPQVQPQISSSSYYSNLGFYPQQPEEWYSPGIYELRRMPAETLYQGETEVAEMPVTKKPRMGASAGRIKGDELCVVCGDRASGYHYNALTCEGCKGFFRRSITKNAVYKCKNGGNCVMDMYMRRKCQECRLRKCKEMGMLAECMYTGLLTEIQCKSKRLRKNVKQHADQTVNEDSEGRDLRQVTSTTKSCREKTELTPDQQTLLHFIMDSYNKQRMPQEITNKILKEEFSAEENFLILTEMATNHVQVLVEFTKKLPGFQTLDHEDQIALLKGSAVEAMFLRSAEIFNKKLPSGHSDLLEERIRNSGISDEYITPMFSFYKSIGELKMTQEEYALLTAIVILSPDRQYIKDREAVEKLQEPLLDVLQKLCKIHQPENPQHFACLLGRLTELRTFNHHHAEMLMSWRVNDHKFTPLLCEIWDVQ

Bile acid receptor [2] = target: T2, Bile acid receptor (Homo sapiens, UniProt Q96RI1); test: Agonist activity at human full length FXR transfected in HEK293 cells coexpressing pTRexDest/pGL2promotor assessed as luciferase activity by direct reporter cellular assay; type: functional, cell-based
T2 sequence (Q96RI1 whole entry): T1 sequence (whole entry)

Bile acid receptor [3] = target: T2, Bile acid receptor; test: Agonist activity at human […] FXR LBD expressed in HEK293 cells coexpressing GAL4-DNA bindig domain and pFRluc by mammalian one-hybrid assay; type: functional, cell-based
[4] = target: T1, Bile acid receptor (Homo sapiens); test: Agonist activity at human […] FXR LBD expressed in HEK293 cells coexpressing GAL4-DNA bindig domain and pFRluc by mammalian one-hybrid assay relative to GW-4064; type: functional, cell-based
[5] = target: T1, Bile acid receptor (Homo sapiens); test: Agonist activity at human full length FXR transfected in HEK293 cells coexpressing pTRexDest/pGL2promotor assessed as luciferase activity by direct reporter cellular assay relative to GW-4064; type: functional, cell-based
Bile acid receptor [6] = target: T2, Bile acid receptor; test: Agonist activity at human GST-fused FXR LBD assessed as cofactor peptide interaction with receptor ligand binding domain by FRET assay

| Efficacy [1] | EC50 (Bile acid receptor [2]; read-out: EC50) | EC50 (Bile acid receptor [3]; read-out: EC50) | Efficacy [4] | Efficacy [5] | EC50 (Bile acid receptor [6]) | EC50 (Bile acid receptor [2]; hek293) | EC50 (Bile acid receptor [3]; hek293) | SMILES |
| --- | --- | --- | --- | --- | --- | --- | --- | --- |
| 94% | 0.113 µM | 0.18 µM | 54% | 43% | 0.194 µM | – | – | CCN(Cc1ccc(C(=O)O)cc1)c1ccc(OCc2c(-c3c(Cl)cccc3Cl)noc2C2CC2)nc1C(F)(F)F |
| 95% | 1.19 µM | 2.03 µM | 21% | 49% | 0.365 µM | – | – | Cc1nc(OCc2c(-c3c(Cl)cccc3Cl)noc2C(C)C)ccc1N(C)C(=O)c1ccc(C(=O)O)cc1 |
| 90% | 0.019 µM | 0.214 µM | 69% | 59% | 0.035 µM | – | – | CC(C)c1onc(-c2c(Cl)cccc2Cl)c1COc1ccc(N(C)Cc2ccc(OCC(=O)O)cc2)c(C(F)(F)F)n1 |
| 99% | 0.202 µM | 0.333 µM | 59% | 49% | 0.101 µM | – | – | CC(Nc1ccc(C(=O)O)cc1)c1ccc(OCc2c(-c3c(Cl)cccc3Cl)noc2C2CC2)nc1C(F)(F)F (stereo not given) |
| 101% | – | – | 58% | 76% | – | – | – | Cc1cc(OCc2c(-c3c(Cl)cccc3Cl)noc2C(C)C)ncc1[N+](=O)[O-] |
| 98% | 0.033 µM | 0.151 µM | 62% | 41% | 0.043 µM | – | – | O=C(O)c1cccc(OCc2ccc(OCc3c(-c4c(Cl)cccc4Cl)noc3C3CC3)nc2C(F)(F)F)c1 |
| 102% | 0.006 µM | 0.08 µM | 89% | 58% | 0.012 µM | – | – | CC(C)c1onc(-c2c(Cl)cccc2Cl)c1COc1ccc(N(C)Cc2cccc(C(=O)O)c2)c(C(F)(F)F)n1 |
| 114% | 0.216 µM | 0.457 µM | 48% | 61% | 0.036 µM | – | – | CC(C)c1onc(-c2c(Cl)cccc2Cl)c1COc1ccc(N(C)Cc2cccc(C(=O)NCCOP(=O)(O)O)c2)c(C(F)(F)F)n1 |
| 97% | 0.101 µM | 0.398 µM | 48% | 45% | 0.162 µM | – | – | CC(C)c1onc(-c2c(Cl)cccc2Cl)c1COc1ccc(NCc2ccc(C(=O)O)cc2)c(C(F)(F)F)n1 |
| 86% | 0.038 µM | 0.095 µM | 59% | 42% | 0.076 µM | – | – | O=C(O)c1ccc(OCc2ccc(OCc3c(-c4c(Cl)cccc4Cl)noc3C3CC3)nc2C(F)(F)F)cc1 |
| 110% | 0.02 µM | 0.279 µM | 59% | 72% | 0.048 µM | – | – | CC(C)c1onc(-c2c(Cl)cccc2Cl)c1COc1ccc(N(C)Cc2cccc(C(=O)NS(C)(=O)=O)c2)c(C(F)(F)F)n1 |
| 102% | 0.182 µM | 0.208 µM | 55% | 57% | 0.179 µM | – | – | CC(c1ccc(OCc2c(-c3c(Cl)cccc3Cl)noc2C2CC2)nc1C(F)(F)F)N(C)c1ccc(C(=O)O)cc1 (stereo not given) |
| 104% | 0.878 µM | 0.536 µM | 40% | 68% | 0.147 µM | – | – | Cc1cc(OCc2c(-c3c(Cl)cccc3Cl)noc2C(C)C)nc2ccccc12 |
| 91% | 0.611 µM | 1.71 µM | 63% | 33% | 0.434 µM | – | – | O=C(O)c1ccccc1OCc1ccc(OCc2c(-c3c(Cl)cccc3Cl)noc2C2CC2)nc1C(F)(F)F |
| 110% | 0.537 µM | 0.571 µM | 35% | 55% | 0.433 µM | – | – | CC(C)c1onc(-c2c(Cl)cccc2Cl)c1COc1ccc(N(C)C(=O)c2cccc(C(=O)O)c2)c(C(F)(F)F)n1 |
| 96% | 0.016 µM | 0.035 µM | 55% | 66% | 0.017 µM | – | – | CC(C)c1onc(-c2c(Cl)cccc2Cl)c1COc1ccc(N(C)Cc2ccc(CCC(=O)O)cc2)c(C(F)(F)F)n1 |
| 102% | 0.058 µM | 0.107 µM | 50% | 49% | 0.155 µM | – | – | CC(Oc1cccc(C(=O)O)c1)c1ccc(OCc2c(-c3c(Cl)cccc3Cl)noc2C2CC2)nc1C(F)(F)F (stereo not given) |
| 103% | 0.12 µM | 0.107 µM | 70% | 51% | 0.242 µM | – | – | CC(C)c1onc(-c2c(Cl)cccc2Cl)c1COc1cnc(N(C)Cc2ccc(C(=O)O)cc2)c(Cl)c1 |
| 100% | – | – | 100% | 100% | – | – | – | CC(C)c1onc(-c2c(Cl)cccc2Cl)c1COc1ccc(/C=C/c2cccc(C(=O)O)c2)c(Cl)c1 |
| 105% | 0.011 µM | 0.221 µM | 64% | 67% | 0.04 µM | – | – | CC(C)c1onc(-c2c(Cl)cccc2Cl)c1COc1ccc(N(C)Cc2ccc(C(=O)NS(C)(=O)=O)cc2)c(C(F)(F)F)n1 |
| 101% | 0.208 µM | 0.316 µM | 36% | 63% | 0.235 µM | – | – | CC(C)c1onc(-c2c(Cl)cccc2Cl)c1COc1ccc(N(C)C(=O)c2ccc(C(=O)O)cc2)c(C(F)(F)F)n1 |
| 89% | 0.611 µM | 0.189 µM | 70% | 33% | 0.352 µM | – | – | CC(Oc1ccc(C(=O)O)cc1)c1ccc(OCc2c(-c3c(Cl)cccc3Cl)noc2C2CC2)nc1C(F)(F)F (stereo not given) |
| 105% | 0.061 µM | 0.1 µM | 42% | 54% | 0.19 µM | – | – | CC(C)c1onc(-c2c(Cl)cccc2Cl)c1COc1cnc(N(C)Cc2cccc(C(=O)O)c2)c(Cl)c1 |
| 87% | 0.155 µM | 1.15 µM | 43% | 59% | 0.164 µM | – | – | CC(C)c1onc(-c2c(Cl)cccc2Cl)c1COc1ccc(N(C)Cc2ccc(OCCO)cc2)c(C(F)(F)F)n1 |
| – | 1.14 µM | 1 µM | – | – | 0.089 µM | – | – | Cc1cc(OCc2c(-c3c(Cl)cccc3Cl)[n-][o+]c2C(C)C)ncc1[N+](=O)[O-] |
| – | – | – | – | – | 0.225 µM | Not Active | Not Active | Cc1cc(C(F)(F)F)cc(OCc2c(-c3c(Cl)cccc3Cl)noc2C(C)C)n1 |
| 109% | 0.385 µM | 0.474 µM | 21% | 48% | 0.452 µM | – | – | CC(C)c1onc(-c2c(Cl)cccc2Cl)c1COc1ccc(NC(=O)c2ccc(C(=O)O)cc2)c(C(F)(F)F)n1 |
